Legend:
GluN1/GluN2A NMDAR = GluN1/GluN2A NMDAR (Homo sapiens, UniProt Q05586+Q12879, Q05586:Y647S); assay: two-electrode voltage clamp, Xenopus oocytes; type: cell-based
GluN1/GluN2B NMDAR = GluN1/GluN2B NMDAR (Homo sapiens, UniProt Q05586+Q13224, Q05586:Y647S); assay: two-electrode voltage clamp, Xenopus oocytes; type: cell-based
Sequence of GluN1/GluN2B NMDAR (Q13224 27-1484, other chains not shown): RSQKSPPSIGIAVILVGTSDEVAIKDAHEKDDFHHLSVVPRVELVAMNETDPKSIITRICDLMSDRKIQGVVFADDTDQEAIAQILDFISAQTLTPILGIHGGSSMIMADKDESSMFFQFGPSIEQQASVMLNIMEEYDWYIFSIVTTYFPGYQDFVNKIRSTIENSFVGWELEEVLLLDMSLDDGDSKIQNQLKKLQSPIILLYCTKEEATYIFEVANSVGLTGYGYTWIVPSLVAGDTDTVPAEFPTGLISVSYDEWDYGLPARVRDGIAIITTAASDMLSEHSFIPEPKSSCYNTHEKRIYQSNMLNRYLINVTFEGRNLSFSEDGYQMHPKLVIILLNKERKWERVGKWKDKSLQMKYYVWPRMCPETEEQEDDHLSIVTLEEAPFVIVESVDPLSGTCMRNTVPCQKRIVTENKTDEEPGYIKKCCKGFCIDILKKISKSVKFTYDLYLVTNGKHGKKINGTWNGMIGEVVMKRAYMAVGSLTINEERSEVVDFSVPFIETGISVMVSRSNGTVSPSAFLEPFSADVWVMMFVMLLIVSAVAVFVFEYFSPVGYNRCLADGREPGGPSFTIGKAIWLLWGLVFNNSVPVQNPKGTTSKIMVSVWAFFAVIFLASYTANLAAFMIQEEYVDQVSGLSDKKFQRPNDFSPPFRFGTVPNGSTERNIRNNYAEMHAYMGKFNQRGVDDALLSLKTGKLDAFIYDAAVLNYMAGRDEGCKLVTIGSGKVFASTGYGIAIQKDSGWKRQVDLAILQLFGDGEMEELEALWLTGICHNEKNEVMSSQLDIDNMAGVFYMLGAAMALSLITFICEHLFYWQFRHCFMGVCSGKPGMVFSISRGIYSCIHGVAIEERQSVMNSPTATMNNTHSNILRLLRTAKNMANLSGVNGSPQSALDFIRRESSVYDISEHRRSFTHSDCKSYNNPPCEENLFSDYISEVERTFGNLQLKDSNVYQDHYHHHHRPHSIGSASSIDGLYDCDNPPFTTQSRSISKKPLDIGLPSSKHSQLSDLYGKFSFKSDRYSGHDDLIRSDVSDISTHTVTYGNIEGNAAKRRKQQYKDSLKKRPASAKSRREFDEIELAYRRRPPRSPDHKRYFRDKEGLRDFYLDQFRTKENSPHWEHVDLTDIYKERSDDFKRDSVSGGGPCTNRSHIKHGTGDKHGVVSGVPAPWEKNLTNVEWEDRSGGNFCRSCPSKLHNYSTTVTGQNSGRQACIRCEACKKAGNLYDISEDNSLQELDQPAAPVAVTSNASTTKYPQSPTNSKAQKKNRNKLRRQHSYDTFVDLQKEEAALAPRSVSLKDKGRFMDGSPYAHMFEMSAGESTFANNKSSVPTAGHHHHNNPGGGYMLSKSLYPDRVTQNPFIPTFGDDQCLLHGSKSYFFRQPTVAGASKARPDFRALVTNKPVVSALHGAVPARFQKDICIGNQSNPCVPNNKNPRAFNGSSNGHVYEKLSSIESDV

Sequence of GluN1/GluN2A NMDAR (Q12879 23-1464, other chains not shown): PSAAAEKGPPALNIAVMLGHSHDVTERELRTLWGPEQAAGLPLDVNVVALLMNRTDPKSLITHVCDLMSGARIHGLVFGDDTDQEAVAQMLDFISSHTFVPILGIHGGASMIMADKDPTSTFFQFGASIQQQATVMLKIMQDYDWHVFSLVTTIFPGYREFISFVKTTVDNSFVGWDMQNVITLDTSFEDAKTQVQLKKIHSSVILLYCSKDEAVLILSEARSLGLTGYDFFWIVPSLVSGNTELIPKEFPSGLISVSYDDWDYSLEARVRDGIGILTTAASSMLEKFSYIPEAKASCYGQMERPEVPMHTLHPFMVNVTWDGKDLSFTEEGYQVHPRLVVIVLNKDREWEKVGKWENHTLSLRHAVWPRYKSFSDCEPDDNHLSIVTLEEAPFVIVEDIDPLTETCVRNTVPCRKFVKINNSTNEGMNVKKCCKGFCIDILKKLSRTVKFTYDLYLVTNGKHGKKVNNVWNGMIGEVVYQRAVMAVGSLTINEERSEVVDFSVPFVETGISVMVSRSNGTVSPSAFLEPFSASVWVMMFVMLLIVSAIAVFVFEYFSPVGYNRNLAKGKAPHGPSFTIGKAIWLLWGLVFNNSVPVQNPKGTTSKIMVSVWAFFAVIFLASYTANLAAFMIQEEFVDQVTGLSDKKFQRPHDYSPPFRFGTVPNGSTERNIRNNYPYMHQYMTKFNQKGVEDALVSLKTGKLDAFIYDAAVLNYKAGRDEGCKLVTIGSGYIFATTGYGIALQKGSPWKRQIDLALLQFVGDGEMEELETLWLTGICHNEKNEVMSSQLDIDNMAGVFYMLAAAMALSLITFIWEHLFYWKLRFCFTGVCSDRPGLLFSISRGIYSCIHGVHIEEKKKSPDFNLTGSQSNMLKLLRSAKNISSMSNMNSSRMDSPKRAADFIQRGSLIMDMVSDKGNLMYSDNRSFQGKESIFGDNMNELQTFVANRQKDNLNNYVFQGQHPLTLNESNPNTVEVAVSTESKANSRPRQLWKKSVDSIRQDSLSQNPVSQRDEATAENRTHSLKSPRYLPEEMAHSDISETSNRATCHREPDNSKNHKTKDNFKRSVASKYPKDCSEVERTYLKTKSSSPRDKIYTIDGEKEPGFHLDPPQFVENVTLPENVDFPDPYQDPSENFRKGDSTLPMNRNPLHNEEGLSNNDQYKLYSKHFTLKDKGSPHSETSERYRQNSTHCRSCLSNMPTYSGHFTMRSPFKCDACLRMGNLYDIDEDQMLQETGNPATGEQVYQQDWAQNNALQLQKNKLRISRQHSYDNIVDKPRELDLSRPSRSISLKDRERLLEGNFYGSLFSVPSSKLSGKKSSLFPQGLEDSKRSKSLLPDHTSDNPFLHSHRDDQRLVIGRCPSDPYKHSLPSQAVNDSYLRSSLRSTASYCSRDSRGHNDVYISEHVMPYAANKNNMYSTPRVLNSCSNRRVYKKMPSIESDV

EC50 (GluN1/GluN2A NMDAR): 36 nM
EC50 (GluN1/GluN2B NMDAR): 17 nM
SMILES: NCC(=O)O [glycine]

Source: publication doi:10.1101/2024.08.21.608984v2 (biorxiv, 2025)
